Measurements taken from the kinase profiling compilation of Christmann-Franck et al. (2016).
“And” between values parts separate entries of the source, which are not always exact repeats. Equal values may be shown once.

Legend:
Test in all cases: radiometric filter-binding kinase assay, Kinase HotSpot
Conditions in all cases: compound 0.5 µM; ATP 10 µM
[1] = target: RPS6KB2 (human) (UniProt Q9UBS0)
[2] = target: MAPK9 (human) (UniProt P45984)
[3] = target: RPS6KA1 KD1 KD2 (human) (UniProt Q15418)
[4] = target: LCK (human) (UniProt P06239)
Sequence of LCK (human) (P06239 whole entry, looked up): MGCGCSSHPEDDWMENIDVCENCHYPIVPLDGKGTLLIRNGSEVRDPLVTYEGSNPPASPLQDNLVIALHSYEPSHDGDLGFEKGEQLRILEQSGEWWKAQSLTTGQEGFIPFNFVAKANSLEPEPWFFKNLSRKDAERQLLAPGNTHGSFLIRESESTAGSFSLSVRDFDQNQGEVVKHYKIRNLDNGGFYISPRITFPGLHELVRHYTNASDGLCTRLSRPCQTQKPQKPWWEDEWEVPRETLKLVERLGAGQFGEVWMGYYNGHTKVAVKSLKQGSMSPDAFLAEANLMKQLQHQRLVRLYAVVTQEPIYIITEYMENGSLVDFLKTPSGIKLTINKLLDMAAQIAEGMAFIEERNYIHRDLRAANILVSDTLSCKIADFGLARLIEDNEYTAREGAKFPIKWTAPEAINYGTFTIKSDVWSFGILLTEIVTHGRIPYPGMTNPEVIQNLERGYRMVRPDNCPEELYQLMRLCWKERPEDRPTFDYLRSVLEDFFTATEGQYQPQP

[5] = target: FER (human) (UniProt P16591)
[6] = target: AKT1 (human) (UniProt P31749)
[7] = target: PIM1 (human) (UniProt P11309)
[8] = target: NEK9 (human) (UniProt Q8TD19)
Sequence of NEK9 (human) (Q8TD19 whole entry, looked up): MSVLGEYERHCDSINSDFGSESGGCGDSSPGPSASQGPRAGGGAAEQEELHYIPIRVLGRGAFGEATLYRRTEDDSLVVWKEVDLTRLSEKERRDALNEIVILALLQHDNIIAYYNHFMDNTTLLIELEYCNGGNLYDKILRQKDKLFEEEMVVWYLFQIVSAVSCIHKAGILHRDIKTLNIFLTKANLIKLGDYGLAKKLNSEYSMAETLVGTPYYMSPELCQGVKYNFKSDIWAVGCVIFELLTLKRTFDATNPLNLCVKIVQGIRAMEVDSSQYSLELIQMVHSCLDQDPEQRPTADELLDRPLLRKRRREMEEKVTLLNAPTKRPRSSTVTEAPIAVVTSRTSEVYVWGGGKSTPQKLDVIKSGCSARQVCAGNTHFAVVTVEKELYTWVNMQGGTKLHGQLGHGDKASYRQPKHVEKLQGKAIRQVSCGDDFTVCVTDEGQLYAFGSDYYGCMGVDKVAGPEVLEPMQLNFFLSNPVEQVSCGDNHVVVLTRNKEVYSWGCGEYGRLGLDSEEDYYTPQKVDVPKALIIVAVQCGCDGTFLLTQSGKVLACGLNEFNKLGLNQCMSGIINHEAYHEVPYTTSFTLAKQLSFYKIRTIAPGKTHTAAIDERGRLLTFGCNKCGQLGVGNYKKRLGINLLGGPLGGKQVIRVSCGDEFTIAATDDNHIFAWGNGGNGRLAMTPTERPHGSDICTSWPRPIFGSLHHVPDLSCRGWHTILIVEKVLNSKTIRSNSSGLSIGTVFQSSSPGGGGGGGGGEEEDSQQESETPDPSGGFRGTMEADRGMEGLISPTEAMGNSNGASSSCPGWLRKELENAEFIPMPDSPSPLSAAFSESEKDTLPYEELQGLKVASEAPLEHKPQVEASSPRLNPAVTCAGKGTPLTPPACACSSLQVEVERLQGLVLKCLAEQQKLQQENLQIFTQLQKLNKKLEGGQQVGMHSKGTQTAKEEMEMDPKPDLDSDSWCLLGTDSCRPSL

[9] = target: DCLK2 (human) (UniProt Q8N568)
[10] = target: CDK4 CCND1 (human) (UniProt P24385+P11802)
[11] = target: PDPK1 (human) (UniProt O15530)
[12] = target: PAK2 (human) (UniProt Q13177)
[13] = target: DAPK1 (human) (UniProt P53355)
[14] = target: MAPK14 (human) (UniProt Q16539)
[15] = target: PAK1 (human) (UniProt Q13153)
[16] = target: TLK2 (human) (UniProt Q86UE8)
[17] = target: BLK (human) (UniProt P51451)
[18] = target: ZAP70 (human) (UniProt P43403)
Sequence of ZAP70 (human) (P43403 whole entry, looked up): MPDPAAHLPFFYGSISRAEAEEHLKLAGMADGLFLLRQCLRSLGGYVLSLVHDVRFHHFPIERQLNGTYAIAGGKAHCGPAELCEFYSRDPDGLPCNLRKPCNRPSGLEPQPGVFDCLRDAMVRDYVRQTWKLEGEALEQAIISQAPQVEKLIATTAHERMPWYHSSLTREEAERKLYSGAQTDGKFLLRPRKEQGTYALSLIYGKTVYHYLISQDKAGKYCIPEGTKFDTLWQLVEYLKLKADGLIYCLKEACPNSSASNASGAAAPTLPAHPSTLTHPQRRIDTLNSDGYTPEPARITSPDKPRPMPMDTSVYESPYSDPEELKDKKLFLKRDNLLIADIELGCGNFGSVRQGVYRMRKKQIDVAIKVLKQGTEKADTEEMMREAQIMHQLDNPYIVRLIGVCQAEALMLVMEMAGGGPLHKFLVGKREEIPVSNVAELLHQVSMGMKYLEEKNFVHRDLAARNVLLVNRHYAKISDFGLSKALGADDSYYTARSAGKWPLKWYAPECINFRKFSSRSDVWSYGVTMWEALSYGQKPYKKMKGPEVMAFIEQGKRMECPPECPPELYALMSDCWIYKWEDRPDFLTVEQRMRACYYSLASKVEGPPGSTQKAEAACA

[19] = target: JAK1 JH1 catalytic (human) (UniProt P23458)
[20] = target: CAMK4 (human) (UniProt Q16566)
[21] = target: SRPK1 (human) (UniProt Q96SB4)
[22] = target: CDK1 CCNA2 (human) (UniProt P06493+P20248)
[23] = target: PDGFRA (human) (UniProt P16234)
[24] = target: IRAK4 (human) (UniProt Q9NWZ3)
Sequence of IRAK4 (human) (Q9NWZ3 whole entry, looked up): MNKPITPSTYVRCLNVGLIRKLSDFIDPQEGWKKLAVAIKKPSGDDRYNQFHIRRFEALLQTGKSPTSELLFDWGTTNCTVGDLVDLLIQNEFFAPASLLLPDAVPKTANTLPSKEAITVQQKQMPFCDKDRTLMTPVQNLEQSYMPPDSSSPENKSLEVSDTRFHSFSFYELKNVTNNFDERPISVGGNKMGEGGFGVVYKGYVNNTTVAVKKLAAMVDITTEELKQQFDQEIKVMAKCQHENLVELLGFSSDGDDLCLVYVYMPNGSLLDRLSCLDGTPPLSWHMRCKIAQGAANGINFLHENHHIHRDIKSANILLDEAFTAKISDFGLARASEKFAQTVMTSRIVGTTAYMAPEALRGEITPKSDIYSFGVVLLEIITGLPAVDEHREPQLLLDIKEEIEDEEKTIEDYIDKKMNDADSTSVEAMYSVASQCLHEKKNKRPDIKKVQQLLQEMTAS

[25] = target: CAMK2B (human) (UniProt Q13554)
[26] = target: HCK (human) (UniProt P08631)
[27] = target: GRK6 (human) (UniProt P43250)
[28] = target: FLT1 (human) (UniProt P17948)
[29] = target: JAK2 JH1 JH2 (human) (UniProt O60674)
Sequence of JAK2 JH1 JH2 (human) (O60674 whole entry, looked up): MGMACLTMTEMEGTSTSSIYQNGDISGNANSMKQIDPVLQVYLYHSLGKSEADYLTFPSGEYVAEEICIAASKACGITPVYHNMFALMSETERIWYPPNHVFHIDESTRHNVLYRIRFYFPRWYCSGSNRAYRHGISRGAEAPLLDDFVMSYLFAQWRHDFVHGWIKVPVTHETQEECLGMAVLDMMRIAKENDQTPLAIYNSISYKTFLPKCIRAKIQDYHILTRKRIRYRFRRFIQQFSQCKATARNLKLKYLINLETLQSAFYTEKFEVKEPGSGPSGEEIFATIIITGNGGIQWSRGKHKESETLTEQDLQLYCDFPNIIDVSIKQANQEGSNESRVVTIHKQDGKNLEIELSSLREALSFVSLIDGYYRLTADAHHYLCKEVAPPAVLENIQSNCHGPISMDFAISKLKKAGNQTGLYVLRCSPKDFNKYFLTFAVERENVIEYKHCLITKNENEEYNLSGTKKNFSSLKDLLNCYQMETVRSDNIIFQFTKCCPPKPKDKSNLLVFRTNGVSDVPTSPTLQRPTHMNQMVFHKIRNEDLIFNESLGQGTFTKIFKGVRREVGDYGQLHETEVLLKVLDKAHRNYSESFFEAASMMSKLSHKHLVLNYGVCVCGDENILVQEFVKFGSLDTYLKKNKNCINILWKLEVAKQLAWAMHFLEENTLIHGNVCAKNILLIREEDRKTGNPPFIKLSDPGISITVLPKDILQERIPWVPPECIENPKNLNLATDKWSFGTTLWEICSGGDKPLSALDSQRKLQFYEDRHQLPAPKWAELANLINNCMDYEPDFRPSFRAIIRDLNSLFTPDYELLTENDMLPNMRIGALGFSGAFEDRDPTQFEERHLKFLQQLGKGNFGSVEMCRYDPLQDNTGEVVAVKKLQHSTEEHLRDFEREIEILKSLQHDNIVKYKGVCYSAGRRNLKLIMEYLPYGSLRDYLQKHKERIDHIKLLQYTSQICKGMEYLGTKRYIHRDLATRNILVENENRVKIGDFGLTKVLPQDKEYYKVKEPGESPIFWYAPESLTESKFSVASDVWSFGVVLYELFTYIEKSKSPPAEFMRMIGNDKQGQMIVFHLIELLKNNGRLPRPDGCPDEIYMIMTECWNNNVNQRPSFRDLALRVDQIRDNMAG

[30] = target: PRKCH (human) (UniProt P24723)
[31] = target: CSNK1G1 (human) (UniProt Q9HCP0)
[32] = target: DMPK (human) (UniProt Q09013)
[33] = target: WEE1 (human) (UniProt P30291)
[34] = target: PRKD3 (human) (UniProt O94806)
Sequence of PRKD3 (human) (O94806 whole entry, looked up): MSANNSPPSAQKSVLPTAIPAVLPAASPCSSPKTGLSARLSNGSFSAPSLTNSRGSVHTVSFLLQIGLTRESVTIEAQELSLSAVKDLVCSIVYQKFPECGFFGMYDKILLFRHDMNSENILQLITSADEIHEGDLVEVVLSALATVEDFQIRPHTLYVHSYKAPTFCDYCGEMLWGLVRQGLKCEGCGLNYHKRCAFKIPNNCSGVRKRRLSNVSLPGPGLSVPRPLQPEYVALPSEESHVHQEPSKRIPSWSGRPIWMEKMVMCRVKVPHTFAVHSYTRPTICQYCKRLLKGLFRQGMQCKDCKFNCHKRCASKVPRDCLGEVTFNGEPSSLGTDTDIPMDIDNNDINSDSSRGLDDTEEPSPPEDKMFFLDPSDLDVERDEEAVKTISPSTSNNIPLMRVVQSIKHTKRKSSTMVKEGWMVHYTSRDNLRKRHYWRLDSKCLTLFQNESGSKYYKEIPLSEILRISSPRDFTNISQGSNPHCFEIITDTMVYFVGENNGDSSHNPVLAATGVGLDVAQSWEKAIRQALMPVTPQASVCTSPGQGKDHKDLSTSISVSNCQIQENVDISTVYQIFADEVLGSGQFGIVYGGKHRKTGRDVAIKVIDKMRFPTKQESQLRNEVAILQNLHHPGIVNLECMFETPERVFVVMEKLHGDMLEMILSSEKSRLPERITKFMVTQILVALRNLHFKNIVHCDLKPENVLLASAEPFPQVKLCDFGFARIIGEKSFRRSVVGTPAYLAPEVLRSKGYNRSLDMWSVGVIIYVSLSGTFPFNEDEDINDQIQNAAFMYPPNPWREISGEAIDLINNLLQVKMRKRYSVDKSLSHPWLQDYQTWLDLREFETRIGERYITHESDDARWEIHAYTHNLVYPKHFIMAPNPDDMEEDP

[35] = target: PASK (human) (UniProt Q96RG2)
[36] = target: MAPKAPK3 (human) (UniProt Q16644)
[37] = target: PLK3 (human) (UniProt Q9H4B4)
[38] = target: ROS1 (human) (UniProt P08922)
[39] = target: LYN (human) (UniProt P07948)
[40] = target: TBK1 (human) (UniProt Q9UHD2)
[41] = target: TNK2 (human) (UniProt Q07912)
[42] = target: TAOK1 (human) (UniProt Q7L7X3)

Sequence of RPS6KB2 (human) (Q9UBS0 whole entry, looked up): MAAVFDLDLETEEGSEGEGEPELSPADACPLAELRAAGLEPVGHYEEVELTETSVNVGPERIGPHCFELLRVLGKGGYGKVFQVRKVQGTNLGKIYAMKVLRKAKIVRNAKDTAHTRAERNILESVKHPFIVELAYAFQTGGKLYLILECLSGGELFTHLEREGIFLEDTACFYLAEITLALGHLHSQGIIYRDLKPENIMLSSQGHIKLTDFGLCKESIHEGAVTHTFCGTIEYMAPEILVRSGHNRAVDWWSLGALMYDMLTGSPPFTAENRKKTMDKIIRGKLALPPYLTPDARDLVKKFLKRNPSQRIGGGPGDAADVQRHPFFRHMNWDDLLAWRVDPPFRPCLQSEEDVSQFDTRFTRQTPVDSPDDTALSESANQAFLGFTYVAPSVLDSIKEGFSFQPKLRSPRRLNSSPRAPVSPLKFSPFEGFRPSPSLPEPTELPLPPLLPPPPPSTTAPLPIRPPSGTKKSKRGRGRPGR

**Q.** With Nc1ncnc2[nH]nc(Nc3ccc(F)cc3)c12 as the molecule, how does the residual activity [1] read?
**A.** 96.8%

**Q.** What about the residual activity [2] of the same molecule?
**A.** 103%

**Q.** And the residual activity [3]?
**A.** 82.2%

**Q.** What about the residual activity [4] of the same molecule?
**A.** 98.3%

**Q.** What about the residual activity [5] of the same molecule?
**A.** 100%

**Q.** What about the residual activity [6] of the same molecule?
**A.** 93.3%

**Q.** And the residual activity [7]?
**A.** 95.5%

**Q.** And the residual activity [8]?
**A.** 97.9%

**Q.** What about the residual activity [9] of the same molecule?
**A.** 99.5%

**Q.** What about the residual activity [10] of the same molecule?
**A.** 90.3%

**Q.** What about the residual activity [11] of the same molecule?
**A.** 102%

**Q.** And the residual activity [12]?
**A.** 103%

**Q.** And the residual activity [13]?
**A.** 116%

**Q.** What about the residual activity [14] of the same molecule?
**A.** 79.5%

**Q.** What about the residual activity [15] of the same molecule?
**A.** 95.2%

**Q.** And the residual activity [16]?
**A.** 79%

**Q.** What about the residual activity [17] of the same molecule?
**A.** 101%

**Q.** What about the residual activity [18] of the same molecule?
**A.** 95.2%

**Q.** What about the residual activity [19] of the same molecule?
**A.** 99%

**Q.** And the residual activity [20]?
**A.** 103%

**Q.** What about the residual activity [21] of the same molecule?
**A.** 104%

**Q.** What about the residual activity [22] of the same molecule?
**A.** 93%

**Q.** What about the residual activity [23] of the same molecule?
**A.** 101%

**Q.** And the residual activity [24]?
**A.** 88.3%

**Q.** What about the residual activity [25] of the same molecule?
**A.** 97.7%

**Q.** What about the residual activity [26] of the same molecule?
**A.** 90.7%

**Q.** What about the residual activity [27] of the same molecule?
**A.** 103%

**Q.** What about the residual activity [28] of the same molecule?
**A.** 87.3%

**Q.** What about the residual activity [29] of the same molecule?
**A.** 105%

**Q.** What about the residual activity [30] of the same molecule?
**A.** 84.7%

**Q.** What about the residual activity [31] of the same molecule?
**A.** 83.3%

**Q.** And the residual activity [32]?
**A.** 114%

**Q.** And the residual activity [33]?
**A.** 93.9%

**Q.** What about the residual activity [34] of the same molecule?
**A.** 86.7%

**Q.** What about the residual activity [35] of the same molecule?
**A.** 91.8%

**Q.** What about the residual activity [36] of the same molecule?
**A.** 94%

**Q.** And the residual activity [37]?
**A.** 98%

**Q.** And the residual activity [38]?
**A.** 99.9%

**Q.** And the residual activity [39]?
**A.** 89.7% and 90.3%

**Q.** And the residual activity [40]?
**A.** 99.6%

**Q.** And the residual activity [41]?
**A.** 61.5%

**Q.** What about the residual activity [42] of the same molecule?
**A.** 92%

**Q.** Which results are given for CO[C@H]1CC2CC[C@@H](C)[C@@](O)(O2)C(=O)C(=O)N2CCCC[C@H]2C(=O)OC([C@H](C)C[C@@H]2CC[C@@H](O)[C@H](OC)C2)CC(=O)[C@H](C)/C=C(\C)[C@@H](O)[C@@H](OC)C(=O)[C@H](C)C[C@H](C)/C=C/C=C/C=C/1C (stereo partly drawn)?
**A.** residual activity [1]: 95.4%; residual activity [2]: 98.4%; residual activity [3]: 104%; residual activity [4]: 99.4%; residual activity [5]: 92%; residual activity [6]: 104%; residual activity [7]: 104%; residual activity [8]: 98.2%; residual activity [9]: 99.2%; residual activity [10]: 115%; residual activity [11]: 92.6%; residual activity [12]: 101%; residual activity [13]: 88.5%; residual activity [14]: 99.1%; residual activity [15]: 95.6%; residual activity [16]: 94.4%; residual activity [17]: 94.8%; residual activity [18]: 99.2%; residual activity [19]: 103%; residual activity [20]: 99.1%; residual activity [21]: 108%; residual activity [22]: 91.9%; residual activity [23]: 95.1%; residual activity [24]: 123%; residual activity [25]: 99.2%; residual activity [26]: 102%; residual activity [27]: 103%; residual activity [28]: 97.7%; residual activity [29]: 97.5%; residual activity [30]: 104%; residual activity [31]: 96%; residual activity [32]: 109%; residual activity [33]: 93.3%; residual activity [34]: 95.6%; residual activity [35]: 101%; residual activity [36]: 90.9%; residual activity [37]: 96.2%; residual activity [38]: 85%; residual activity [39]: 100% and 105%; residual activity [40]: 94.7%; residual activity [41]: 98.5%; residual activity [42]: 102%

**Q.** CCOC(=O)c1c(C)[nH]c(/C=C2\C(=O)Nc3ccccc32)c1C was tested. Which residual activity [1] did it give?
**A.** 103%

**Q.** What about the residual activity [2] of the same molecule?
**A.** 93.9%

**Q.** And the residual activity [3]?
**A.** 77.6%

**Q.** What about the residual activity [4] of the same molecule?
**A.** 88.2%

**Q.** What about the residual activity [5] of the same molecule?
**A.** 72.5%

**Q.** And the residual activity [6]?
**A.** 96.1%

**Q.** And the residual activity [7]?
**A.** 95.8%

**Q.** What about the residual activity [8] of the same molecule?
**A.** 80.8%

**Q.** What about the residual activity [9] of the same molecule?
**A.** 94.7%

**Q.** What about the residual activity [10] of the same molecule?
**A.** 103%

**Q.** And the residual activity [11]?
**A.** 92.5%

**Q.** What about the residual activity [12] of the same molecule?
**A.** 92.5%

**Q.** What about the residual activity [13] of the same molecule?
**A.** 100%

**Q.** And the residual activity [14]?
**A.** 134%

**Q.** And the residual activity [15]?
**A.** 99.9%

**Q.** What about the residual activity [16] of the same molecule?
**A.** 96.5%

**Q.** And the residual activity [17]?
**A.** 80.2%

**Q.** What about the residual activity [18] of the same molecule?
**A.** 98.8%

**Q.** And the residual activity [19]?
**A.** 97.1%

**Q.** And the residual activity [20]?
**A.** 97.7%

**Q.** And the residual activity [21]?
**A.** 95.4%

**Q.** What about the residual activity [22] of the same molecule?
**A.** 96.3%

**Q.** What about the residual activity [23] of the same molecule?
**A.** 82.8%

**Q.** And the residual activity [24]?
**A.** 96.8%

**Q.** And the residual activity [25]?
**A.** 96%

**Q.** And the residual activity [26]?
**A.** 92.6%

**Q.** And the residual activity [27]?
**A.** 90.8%

**Q.** And the residual activity [28]?
**A.** 79%

**Q.** And the residual activity [29]?
**A.** 96.7%

**Q.** What about the residual activity [30] of the same molecule?
**A.** 94%

**Q.** And the residual activity [31]?
**A.** 103%

**Q.** And the residual activity [32]?
**A.** 101%

**Q.** And the residual activity [33]?
**A.** 91.2%

**Q.** What about the residual activity [34] of the same molecule?
**A.** 90.1%

**Q.** What about the residual activity [35] of the same molecule?
**A.** 91.4%

**Q.** What about the residual activity [36] of the same molecule?
**A.** 91.7%

**Q.** And the residual activity [37]?
**A.** 97.5%

**Q.** What about the residual activity [38] of the same molecule?
**A.** 99.1%

**Q.** And the residual activity [39]?
**A.** 84.1% and 98.4%

**Q.** And the residual activity [40]?
**A.** 70.5%

**Q.** And the residual activity [41]?
**A.** 92.7%

**Q.** And the residual activity [42]?
**A.** 100%

**Q.** Which results are given for N#CC(C#N)=C(N)/C(C#N)=C/c1ccc(O)cc1?
**A.** residual activity [1]: 96.8%; residual activity [2]: 105%; residual activity [3]: 93.8%; residual activity [4]: 95.1%; residual activity [5]: 91.1%; residual activity [6]: 99.2%; residual activity [7]: 103%; residual activity [8]: 97.9%; residual activity [9]: 101%; residual activity [10]: 100%; residual activity [11]: 99.4%; residual activity [12]: 86%; residual activity [13]: 92.7%; residual activity [14]: 104%; residual activity [15]: 90.9%; residual activity [16]: 89.4%; residual activity [17]: 101%; residual activity [18]: 96%; residual activity [19]: 99.4%; residual activity [20]: 97.2%; residual activity [21]: 100%; residual activity [22]: 90.6%; residual activity [23]: 97.8%; residual activity [24]: 92.6%; residual activity [25]: 93.3%; residual activity [26]: 98.6%; residual activity [27]: 107%; residual activity [28]: 90.7%; residual activity [29]: 102%; residual activity [30]: 90.3%; residual activity [31]: 93.4%; residual activity [32]: 101%; residual activity [33]: 93.7%; residual activity [34]: 91.9%; residual activity [35]: 82.9%; residual activity [36]: 99.9%; residual activity [37]: 63.6%; residual activity [38]: 97.1%; residual activity [39]: 102% and 92.2%; residual activity [40]: 91.1%; residual activity [41]: 98.1%; residual activity [42]: 93.2%
